Test results: patent US11298338B2, “Compositions and methods for cancer therapy” (UNIVERSITY OF IOWA RESEARCH FOUNDATION, priority 2016, dated 2022)
Entries after “also recorded” stand apart in the source; their conditions may differ.

Legend:
OCI-MY5 cells = experiment: OCI-MY5 cell viability after 1 hr PAA treatment; type: cell-based, human; conditions: for effect of pre-treatment on PAA-induced cell death: OCI-MY5, catalase 100 U/ml, NAC 15 mM, DFO 200 μM or BCS 10 μM for 3 hrs before PAA, viability 24 hrs later
Experimental: FIGS. 2A-2D. […] OCI-MY5 EV (FIG. 2C) and OCI-MY5 OE-Fpn1 (FIG. 2D) were incubated with or without iron (Fe-NTA (FE), 100 μM).
(§1) FIGS. 4A-4E. […] (FIG. 4A) Top bar graph represents OCI-MY5 shRNA-Scramble and shRNA-AIF1 cells incubated with doxycycline to knockdown AIF1 for 2 days. Bottom bar graph represents OCI-MY5 EV and OCI-MY5 OE-AIF1 cells. […] Knockdown and overexpression of AIF1 was confirmed by western blots. […] AIF1, β-actin and γ-H2AX levels were analyzed by western blots. […] AIF1 and β-actin levels were analyzed by western blots. […] N, M, C respectively represent nucleus, mitochondria and cytoplasm. Blue arrows indicate the nuclear membrane and red arrowheads indicate AIF1 gold beads in cytoplasm or mitochondria. Black arrowheads indicate AIF1 gold beads in nuclei.
FIGS. 9A-9B. […] (FIG. 9B) Total RNA was extracted from OCI-MY5 EV and OE cells and Fpn1 mRNA was analyzed by Real time RT-PCR.
Human myeloma cell lines (ARP1, OCI-MY5 and their derivative cell lines) were cultured in RPMI 1640 (Invitrogen, Carlsbad, Calif.), supplemented with 10% heat-inactivated FBS (Invitrogen), penicillin (100 IU/mL), and streptomycin (100 μg/mL) in a humidified incubator at 37° C. and 5% CO2/95% air. To increase cellular iron concentration, ferric nitrilotriacatate (Fe-NTA) was used.

ARP1 MM cells = experiment: Human myeloma xenograft mice, tumor burden by IVIS and survival; type: in vivo, NOD.Cγ-Rag1 mice; conditions: for MM cell growth (tumor burden) compared to the control group: p<0.05, melphalan, carfilzomib, bortezomib 3 mg/kg, 3 weeks
Experimental: NOD.Cγ-Rag1 mice 6-8 weeks old (Jackson laboratory, Bar Harbor, Me.) were injected intravenously with ARP1 MM cells (1×10^6) expressing luciferase. […] Bortezomib (3 mg/kg) was injected intraperitoneal once a day, 2 days a week for 3 weeks. The mice were euthanized when humane endpoint was reached.
Xenogen IVIS-200 an in vivo imaging system (IVIS) was used to analyze tumor burden and was indicated by quantification of luciferase intensity of mice pre- and post-treatments.
GEP data were analyzed by One-Way Anova test using log 2 transformed Affymetrix Signals and presented by boxplot. The comparisons of tumor burden were analyzed either by student t-test (2 groups) or by One-Way Anova test (>2 groups). Kaplan-Meier method was performed for survival with the use of SPSS 16.0 software (SPSS, Chicago, Ill.). Two-tailed p value at an alpha level of 0.05 was considered to indicate statistical significance. Graphs were generated using Prism 6 software.

CD138+ MM cells = experiment: Pharmacological Ascorbic Acid viability assay (Trypan Blue), CD138+ cells from patients; type: cell-based, human
Experimental: (§2) CD138^+ MM cells and CD138^− non-MM cells were isolated from MGUS, SMM, and MM patient samples using anti-CD138 immunomagnetic beads (Miltenyl Biotec, Auburn, Calif.). […] After incubation, the cells were washed and cultured up to 24 h. Cell counts and viable cell number were determined using Trypan Blue staining.

CD138- non-MM cells = experiment: Pharmacological Ascorbic Acid viability assay (Trypan Blue), CD138- cells from patients; type: cell-based, human; conditions: CD138- BM cells from the same MM patients
Experimental: as §2, with “Pharmacological Ascorbic Acid (PAA) was kindly provided by Dr. Garry R. Buettner (University of Iowa). CD138^+” for “CD138^+”

OCI-MY5 WT cells = experiment: Transmission electron microscopy of PAA-treated OCI-MY5 WT cells; type: cell-based, human; conditions: 4 mM PAA one hour, fixed after 60 and 120 min
Experimental: (§3) FIGS. 3A-3B. […] Red boxes represent zooming image of mitochondria in OCI-MY5 WT cells (left) and OCI-MY5 WT cells treated with PA (right).
(§4) Electron microscopy was performed by the Central Microscopy Research Facility personnel at the University of Iowa. Images were captured on JEOL JEM 1230.

caspases 3, 8, and 9 = experiment: Western blot of caspases in OCI-MY5 WT cells; type: cell-based, human; conditions: OCI-MY5 WT after PAA (FIG. 3B)
Experimental: as §3
(§5) Cells were harvested and lysed with lysis buffer: 150 mM NaCl, 10 mM EDTA, 10 mM Tris, pH 7.4, 1% X-100 Triton. Cell lysates were subjected to SDS-PAGE, transferred onto a pure nitrocellulose membrane (BioRad), and blocked with 5% fat-free milk. Primary antibodies for immunoblotting included: anti-AIF1 (1:1000, Cell Signaling), anti-RIP (1:1000, Santa Cruz Biotechnology), anti-RIP3 (1:1000, Cell Signaling), anti-Caspase3 (1:1000, Cell Signaling), anti-Caspase 8 (1:1000, Cell Signaling), anti-Caspase 9 (1:1000, Cell Signaling) Phosphorylated γH2AX (1:1000, Enzo Life Sciences), and β-actin (1:1000, Cell Signaling) as loading control. Membranes were incubated with horseradish peroxidase (HRP)-conjugated anti-mouse secondary antibody (1:10,000, Santa Cruz Biotechnology, cat #: sc-2005) or anti-rabbit secondary antibody (1:10,000, AnaSpec Inc., cat #: AS-28177) for 1 h and chemi-luminescence signals were detected by HRP substrate (EMD Millipore).

RIP1 and RIP3 = experiment: Western blot of RIP1 and RIP3 in OCI-MY5 WT cells; type: cell-based, human; conditions: OCI-MY5 WT after PAA (FIG. 3B)
Experimental: as §3, §5

AIF1 [1] = experiment: Western blot of AIF1 cleavage in OCI-MY5 cells; type: cell-based, human; conditions: OCI-MY5 cells (FIG. 4C); melphalan 0-80 μM 4 hrs
Experimental: as §1
(§6) Cells were harvested and lysed with lysis buffer: 150 mM NaCl, 10 mM EDTA, 10 mM Tris, pH 7.4, 1% X-100 Triton. Cell lysates were subjected to SDS-PAGE, transferred onto a pure nitrocellulose membrane (BioRad), and blocked with 5% fat-free milk. […] Membranes were incubated with horseradish peroxidase (HRP)-conjugated anti-mouse secondary antibody (1:10,000, Santa Cruz Biotechnology, cat #: sc-2005) or anti-rabbit secondary antibody (1:10,000, AnaSpec Inc., cat #: AS-28177) for 1 h and chemi-luminescence signals were detected by HRP substrate (EMD Millipore).

γ-H2AX = experiment: Western blot of phosphorylated γ-H2AX in OCI-MY5 cells; type: cell-based, human; conditions: OCI-MY5 (FIG. 4C); melphalan alone at high dose, with PAA at lower dose
Experimental: as §1, §6

AIF1 [2] = experiment: AIF1 immunolabeling electron microscopy in OCI-MY5 cells; type: cell-based, human; conditions: OCI-MY5, PAA 2 mM (FIG. 4E)
Experimental: as §1, §4

[3] = system: ARP1 MM cells with TRIP13 overexpression; experiment: Cell viability of ARP1 cells with TRIP13-OE or EV under drug treatment; type: cell-based, human; conditions: for response of TRIP13-OE ARP1 cells to drug: ARP1-OE vs ARP1-EV, different doses (FIGS. 37A, 37B)
AIF1 [4] = experiment: Western blot of nuclear AIF1 in ARP1 MM cell line; type: cell-based, human; conditions: TRIP13N and TRIP13OE MM cells (FIG. 38D)
[5] = intraperitoneal administration of 4 g ascorbate per kilogram of body weight; cited from earlier work
[6] = cited from earlier work
[7] = system: KMS11, ARK and ARP1 cells; experiment: Erastin growth inhibition, PrestoBlue assay; type: cell-based, human; conditions: ferrostatin (Fer-1) 1 μM with 10 μM Erastin, 48 hours
Experimental: FIG. 23. Erastin Inhibits MM Cells Growth. KMS11, ARK and ARP1 cells were treated with 10 μM Erastin with or without ferrostatin (Fer-1) at 1 μM for 48 hours. Cell proliferation was measured by PrestoBlue assay and normalized to control cells to calculated growth inhibition.

CC(=O)N[C@@H](CS)C(=O)O [NAC, N-acetyl cysteine]
effect of pre-treatment on PAA-induced cell death (OCI-MY5 cells): resistant to PAA

CC(C)C[C@H](NC(=O)[C@H](CCc1ccccc1)NC(=O)CN1CCOCC1)C(=O)N[C@@H](Cc1ccccc1)C(=O)N[C@@H](CC(C)C)C(=O)[C@@]1(C)CO1 [carfilzomib]
MM cell growth (tumor burden) compared to the control group (ARP1 MM cells; FIG. 1D, PAA 4 mg/kg): inhibited MM cell growth significantly

O=C1O[C@H]([C@@H](O)CO)C(O)=C1O [PAA, ascorbic acid]
response to PAA of CD138+ cells from MGUS patients (CD138+ MM cells; 2 MGUS patients (FIG. 1C)): almost no response
survival of CD138+ cells in vitro following PAA treatment (CD138+ MM cells; CD138+ cells from MM patients, PAA 1 hr, washed, cultured up to 24 h): significantly decreased; also recorded: increased killing
effect of PAA on cell viability in SMM patients (CD138+ MM cells; cells from SMM patients (FIG. 1B)): same effect
cell viability of CD138- BM cells following PAA treatment (CD138- non-MM cells): no significant change
MM cell growth (tumor burden) compared to the control group (ARP1 MM cells; FIG. 1D, PAA 4 mg/kg): inhibited MM cell growth significantly
tumor burden with PAA in mice receiving iron chelator DFO at the same time (ARP1 MM cells; PAA 4 mg/kg IP once a day, DFO 100 mg/Kg twice a week IP (FIG. 25)): not able to decrease tumor burden
tumor progression by IVIS (ARP1 MM cells; PAA 4 mg/kg, once per day, IP, 15 days vs saline): significantly delayed
viability after PAA treatment, AIF1-shRNA cells versus scrambled sequence (OCI-MY5 cells; OCI-MY5 AIF1-shRNA (FIG. 4A top)): significantly higher
PAA concentration able to kill cells (OCI-MY5 cells; OCI-MY5 EV cells): 4 mM
viability after PAA treatment, OE-AIF1 cells versus empty vector (OCI-MY5 cells; OCI-MY5 OE-AIF1 (FIG. 4A bottom)): significantly less viability
PAA concentration required to successfully kill cells (OCI-MY5 cells; OCI-MY5 OE-Fpn1 cells): 20 mM
type of cell death by TEM (OCI-MY5 WT cells): early necrosis (FIG. 3A, 60 mins) followed by late apoptosis
caspases 3, 8, and 9 activity (cleavage) (caspases 3, 8, and 9): marked increase
RIP1 and RIP3 cleavage (RIP1 and RIP3): cleaved
AIF1 cleavage by western blotting (AIF1 [1]): increase in the AIF1 cleaved form
phosphorylated γ-H2AX level (γ-H2AX): induced γ-H2AX
cellular localization of AIF1 (AIF1 [2]): also in cytoplasm and nuclei
response of TRIP13-OE ARP1 cells to drug [3]: sensitive
AIF1 nuclear translocation (AIF1 [4]): induces AIF1 nuclear translocation
levels of ascorbate [5]: 20000 to 40000 µM
levels of ascorbyl radicals [5]: 0.5 µM
safety and tolerability ([6]; IV, animals and humans): safe and well tolerated
plasma concentrations from pharmacological doses ([6]; intravenous (IV) administration): ≥ 10 mM

CC(C)C[C@H](NC(=O)[C@H](Cc1ccccc1)NC(=O)c1cnccn1)B(O)O [bortezomib]
MM cell growth (tumor burden) compared to the control group (ARP1 MM cells; FIG. 1D, PAA 4 mg/kg): inhibited MM cell growth significantly
growth inhibition in TRIP13-OE MM cells compared with EV controls ([3]; ARP1, 24 h, p<0.05 (FIGS. 27E, 27F)): significantly less growth inhibition
response of TRIP13-OE ARP1 cells to drug [3]: resistant
AIF1 nuclear translocation (AIF1 [4]): does not increase AIF1 nuclear localization

N[C@@H](Cc1ccc(N(CCCl)CCCl)cc1)C(=O)O [melphalan]
MM cell growth (tumor burden) compared to the control group (ARP1 MM cells; FIG. 1D, PAA 4 mg/kg): inhibited MM cell growth significantly
tumor burden compared among treatments (ARP1 MM cells; FIG. 1D, single agents vs combination): higher decrease in tumor burden
time at which presence of tumor was detected (ARP1 MM cells; highest dose of melphalan, single agent): only after four weeks
tumor burden at three weeks of treatment (ARP1 MM cells; melphalan 1, 3, 5 mg/kg with or without PAA (FIGS. 1E, 1F)): inhibit tumor growth better than PAA alone
MM mouse survival, compared with PAA alone (ARP1 MM cells; single agent melphalan 3 and 5 mg/kg (FIG. 1G)): extended MM mouse survival
AIF1 cleavage by western blotting (AIF1 [1]): not able to induce AIF1 cleavage
phosphorylated γ-H2AX level (γ-H2AX): induced γ-H2AX

catalase
effect of pre-treatment on PAA-induced cell death (OCI-MY5 cells): resistant to PAA

bathocuproinedisulfonic acid disodium salt [BCS]
effect of pre-treatment on PAA-induced cell death (OCI-MY5 cells): not able to block cellular death

CCOC(=O)c1ccc(NC2CCCCC2)c(N)c1 [ferrostatin]
effect of ferroptosis inhibitor on erastin growth inhibition [7]: can be reversed

O=C([O-])CN(CC(=O)[O-])CC(=O)[O-].[Fe+3] [Iron, ferric nitrilotriacatate]
cell viability after iron pre-treatment and PAA (OCI-MY5 cells; OCI-MY5 EV cells, Fe-NTA 100 μM 18 hrs (FIG. 2C)): rapid decrease in cells viability
cell viability after iron pre-treatment and PAA (OCI-MY5 cells; OCI-MY5 OE-Fpn1 cells, Fe-NTA 100 μM 18 hrs (FIG. 2D)): same effect
